Measurements taken from ChEMBL document CHEMBL1201862, “PubChem BioAssay data set” (2004).
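Compound exposure: 48 hours, 5 concentrations, 96-well plates. At the GI50, growth is halved.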 Active and inactive are the calls of the source. No stated cut-off is given here; in the data, active = GI50 up to about 1.1 µM and inactive = higher.

Experiments:
Test in all cases: growth of human tumour cells (NCI), 48 h
[1] = system: SW-620
[2] = system: NCI-H460
[3] = system: HCT-116
[4] = system: CAKI-1
[5] = system: IGROV-1
[6] = system: SF-295
[7] = system: HCC 2998
[8] = system: SK-MEL-28
[9] = system: UO-31
[10] = system: SF-268
[11] = system: ACHN
[12] = system: SNB-19
[13] = system: OVCAR-4
[14] = system: Malme-3M
[15] = system: U-251
[16] = system: TK-10
[17] = system: SNB-75
[18] = system: MCF7
[19] = system: DU-145

Measured: GI50

CCCCCCCCCCCCCCCCCC(=O)O[C@H](COC(=O)CCCCCCCCCCC)COC(=O)CCCCCCCCCCCCCCC
inactive: [1] > 100 µM | [2] > 100 µM | [3] > 100 µM | [4] > 100 µM | [5] > 100 µM | [6] > 100 µM | [7] > 100 µM | [8] > 100 µM | [9] > 100 µM | [10] > 100 µM | [11] > 100 µM | [12] > 100 µM | [13] > 100 µM | [14] > 100 µM | [15] > 100 µM | [16] > 100 µM

C=C(C)C1Cc2c(cc(OC)c3c(=O)c4ccccc4n(C)c23)O1 (stereo unspecified)
inactive: [1] > 100 µM | [2] > 100 µM | [3] > 100 µM | [4] > 100 µM | [5] > 100 µM | [6] > 100 µM | [7] > 100 µM | [8] 49 µM | [9] > 100 µM | [10] > 100 µM | [17] 70 µM | [11] 58.3 µM | [12] > 100 µM | [13] > 100 µM | [14] > 100 µM | [15] > 100 µM | [16] > 100 µM

O=C(c1ccc(Cl)cc1)c1ccc(OCCCOc2ccc(C(=O)c3ccc(Cl)cc3)cc2Cl)c(Cl)c1
inactive: [1] > 100 µM | [2] > 100 µM | [3] > 100 µM | [4] > 100 µM | [5] > 100 µM | [6] > 100 µM | [7] > 100 µM | [8] > 100 µM | [17] > 100 µM | [11] > 100 µM | [12] > 100 µM | [13] > 100 µM | [14] > 100 µM | [15] > 100 µM | [16] > 100 µM

C/C(=N\N=C(N)N)c1sc(-c2nc(C)c(/C(C)=N/N=C(N)N)s2)nc1C
inactive: [1] > 100 µM | [2] > 62.5 µM | [3] > 100 µM | [4] > 100 µM | [5] > 100 µM | [6] > 100 µM | [7] > 100 µM | [8] > 100 µM | [9] > 91 µM | [10] > 100 µM | [17] > 84.3 µM | [11] > 100 µM | [12] > 100 µM | [13] > 85.5 µM | [14] > 100 µM | [15] > 95.3 µM | [16] > 100 µM

COC(=O)C(C(=O)C(=O)Nc1ccc(OC)cc1[N+](=O)[O-])c1nc2cc(C)c(C)cc2nc1O (stereo unspecified)
inactive: [1] > 100 µM | [2] > 100 µM | [3] > 100 µM | [4] > 100 µM | [5] > 100 µM | [6] > 100 µM | [7] > 100 µM | [8] > 100 µM | [9] > 100 µM | [10] > 100 µM | [17] > 100 µM | [11] > 100 µM | [12] > 100 µM | [13] > 100 µM | [14] > 100 µM | [15] > 100 µM | [16] > 100 µM

COc1cc(CC2c3cc(OC)c(OC)cc3CCN2C)ccc1O (stereo unspecified)
inactive: [1] > 100 µM | [2] > 100 µM | [3] > 100 µM | [4] > 100 µM | [6] > 100 µM | [7] > 100 µM | [8] > 100 µM | [9] > 100 µM | [10] > 100 µM | [17] > 100 µM | [11] > 100 µM | [12] > 100 µM | [13] > 100 µM | [14] > 100 µM | [15] > 100 µM | [16] > 100 µM

CSc1n[n+]2c(s1)SCCC2
inactive: [1] 66.1 µM | [2] > 100 µM | [3] > 100 µM | [4] 31.9 µM | [5] 25.8 µM | [6] > 100 µM | [7] > 100 µM | [8] > 100 µM | [9] 19.8 µM | [10] 80.2 µM | [17] 42.8 µM | [11] > 100 µM | [12] > 100 µM | [13] > 100 µM | [14] > 100 µM | [15] > 100 µM | [16] > 100 µM

NS(=O)(=O)c1ccc(Nc2c3ccccc3nc3c(C(=O)N4CCN(CCO)CC4)cccc23)cc1
inactive: [1] > 100 µM | [2] > 100 µM | [3] > 100 µM | [4] > 100 µM | [5] > 100 µM | [6] > 100 µM | [7] > 100 µM | [8] > 100 µM | [9] > 100 µM | [10] > 100 µM | [17] 52.7 µM | [11] > 100 µM | [12] > 100 µM | [13] > 100 µM | [14] > 100 µM | [15] > 100 µM | [16] > 100 µM

Cc1cc2oc(=O)[nH]c(=S)c2c(C)c1C
inactive: [1] > 100 µM | [2] > 100 µM | [3] > 100 µM | [5] > 100 µM | [6] > 100 µM | [7] > 100 µM | [8] > 100 µM | [9] > 100 µM | [10] > 100 µM | [17] > 100 µM | [11] > 100 µM | [12] > 100 µM | [13] 45.2 µM | [14] > 100 µM | [15] > 100 µM | [16] > 100 µM

CCCCCCCCCCCCCCCCOCC(CN(C)CCN(C)C)OCCCCCCCCCCCCCCCC (stereo unspecified)
inactive: [1] > 100 µM | [2] > 100 µM | [3] > 100 µM | [4] > 100 µM | [5] > 100 µM | [6] > 100 µM | [7] > 100 µM | [8] > 100 µM | [9] > 100 µM | [10] > 100 µM | [17] > 100 µM | [11] > 100 µM | [12] > 100 µM | [13] > 100 µM | [14] > 100 µM | [15] > 100 µM | [16] > 100 µM

O[C@]12c3ccccc3C1CCCC2N1CCOCC1 (stereo partly specified)
inactive: [1] > 100 µM | [2] > 100 µM | [3] > 100 µM | [6] > 100 µM | [8] > 100 µM | [9] > 100 µM | [10] > 100 µM | [17] > 100 µM | [11] > 100 µM | [12] > 100 µM | [13] > 100 µM | [14] > 100 µM | [15] > 100 µM | [16] > 100 µM

Cc1ccc2c(=O)cc(Cc3cccs3)[nH]c2n1
inactive: [1] > 100 µM | [3] > 100 µM | [18] > 100 µM | [4] > 100 µM | [5] > 100 µM | [6] > 100 µM | [8] > 100 µM | [9] > 100 µM | [10] > 100 µM | [17] 95.5 µM | [19] > 100 µM | [12] > 100 µM | [13] > 100 µM | [14] > 100 µM | [15] > 100 µM | [16] > 100 µM

CN(CCc1ccccn1)/[N+]([O-])=N/O.CNCCc1ccccn1
inactive: [1] > 100 µM | [2] > 100 µM | [3] > 100 µM | [4] > 100 µM | [5] > 100 µM | [6] > 100 µM | [7] > 100 µM | [8] > 100 µM | [9] > 100 µM | [10] > 100 µM | [17] > 100 µM | [11] > 100 µM | [12] > 100 µM | [13] > 100 µM | [14] > 100 µM

Clc1ccc(-n2nnc(C3=NCCN3)c2-c2ccccc2)cc1
inactive: [1] > 100 µM | [2] > 100 µM | [3] > 100 µM | [4] > 100 µM | [5] > 100 µM | [6] > 100 µM | [7] > 100 µM | [8] > 100 µM | [9] 43.3 µM | [10] > 100 µM | [17] 47.3 µM | [11] > 100 µM | [12] > 100 µM | [13] > 100 µM | [14] > 100 µM | [15] > 100 µM | [16] 66.8 µM

COc1cc2c(cc1OC)[C@H]1C(COC(=O)Nc3ccccc3)CN1CC2 (stereo partly specified)
inactive: [1] > 100 µM | [2] > 100 µM | [3] > 100 µM | [4] > 100 µM | [5] > 100 µM | [6] > 100 µM | [7] 67.6 µM | [8] > 100 µM | [9] > 100 µM | [10] > 100 µM | [17] 18.6 µM | [11] > 100 µM | [12] > 100 µM | [13] > 100 µM | [14] > 100 µM | [15] > 100 µM | [16] > 100 µM

COc1ccc(NC(=O)CC(=O)N2N=C(N(c3ccccc3)c3ccccc3)CC2c2ccccc2)cc1 (stereo unspecified)
inactive: [1] > 100 µM | [3] > 100 µM | [18] > 100 µM | [4] > 100 µM | [5] > 100 µM | [6] > 100 µM | [7] > 100 µM | [8] > 100 µM | [9] > 100 µM | [10] > 100 µM | [17] > 100 µM | [11] > 100 µM | [19] > 100 µM | [12] > 100 µM | [13] > 100 µM | [15] > 100 µM | [16] > 100 µM
